In assay [1] the target is T1, recombinant human NK3 receptor (Homo sapiens, UniProt P29371).
T1 construct: expressed in transfected cells; host or cells: HEK293 cells (transient expression), membranes
T1 sequence (P29371 1-465): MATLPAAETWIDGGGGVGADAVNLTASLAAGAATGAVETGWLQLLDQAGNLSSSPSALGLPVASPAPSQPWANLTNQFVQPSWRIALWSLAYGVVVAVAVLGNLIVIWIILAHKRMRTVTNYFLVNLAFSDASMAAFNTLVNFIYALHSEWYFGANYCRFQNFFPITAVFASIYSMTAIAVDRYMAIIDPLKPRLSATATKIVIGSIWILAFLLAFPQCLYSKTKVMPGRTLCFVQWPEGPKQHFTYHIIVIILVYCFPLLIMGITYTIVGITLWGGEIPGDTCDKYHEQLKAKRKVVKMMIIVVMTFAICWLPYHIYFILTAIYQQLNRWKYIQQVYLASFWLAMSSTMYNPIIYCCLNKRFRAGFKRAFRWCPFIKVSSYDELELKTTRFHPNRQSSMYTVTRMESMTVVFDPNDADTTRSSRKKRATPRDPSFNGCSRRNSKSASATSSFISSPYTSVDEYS
As to the kind of experiment: [3H]SR142801 competition binding assay. The conditions noted are these: membranes from HEK293 cells transiently expressing hNK3; [3H]SR142801 at its KD; 75 min RT; read-out: Data [μM] (affinity constant Ki, hNK3 receptor binding). The protocol:
[^3H]SR142801 Competition Binding Assay
hNK3 receptor binding experiment were performed using [^3H]SR142801 (Catalog No. TRK1035, specific activity: 74.0 Ci/mmol, Amersham, GE Healthcare UK limited, Buckinghamshire, UK) and membrane isolated from HEK293 cells transiently expressing recombinant human NK3 receptor. After thawing, the membrane homogenates were centrifuged at 48,000×g for 10 min at 4° C., the pellets were resuspended in the 50 mM Tris-HCl, 4 mM MnCl2, 1 μM phosphoramidon, 0.1% BSA binding buffer at pH 7.4 to a final assay concentration of 5 μg protein/well. […] At the end of the incubation, membranes were filtered onto unitfilter (96-well white microplate with bonded GF/C filter preincubated 1 h in 0.3% PEI+0.3% BSA, Packard BioScience, Meriden, Conn.) with a Filtermate 196 harvester (Packard BioScience) and washed 4 times with ice-cold 50 mM Tris-HCl, pH 7.4 buffer. Nonspecific binding was measured in the presence of 10 μM SB222200 for both radioligands. The radioactivity on the filter was counted (5 min) on a Packard Top-count microplate scintillation counter with quenching correction after addition of 45 μl of microscint 40 (Can berra Packard S. A., Zürich, Switzerland) and shaking for 1 h. Inhibition curves were fitted according to the Hill equation: y=100/(1+(x/IC50)^nH), where nH=slope factor using Excel-fit 4 software (Microsoft). IC50 values were derived from the inhibition curve and the affinity constant (Ki) values were calculated using the Cheng-Prussoff equation Ki=IC50/(1+[L]/KD) where [L] is the concentration of radioligand and KD is its dissociation constant at the receptor, derived from the saturation isotherm. All experiments were performed in duplicate and the mean±standard error (SEM) of the individual Ki values was calculated.

For assay [2] the following is noted: phase II trial, cited from earlier work.

Each structure is given as a SMILES string.

By Ki is commonly meant a measure of affinity in units of concentration, obtained from inhibition or displacement.

Turning to `C[C@H](Oc1ccc(Cl)cn1)[C@H]1CN(C(=O)C2CCN(C(=O)C3(C)CC3)CC2)C[C@@H]1c1ccc(F)cc1F` (racemic) [Example 48, [(3RS,4SR)-3-[(SR)-1-(5-Chloro-pyridin-2-yloxy)-ethyl]-4-(2,4-difluoro-phenyl)-pyrrolidin-1-yl]-[1-(1-methyl-cyclopropanecarbonyl)-piperidin-4-yl]-methanone], the Ki in assay [1] amounted to 0.0074 µM.
Still for that read-out and setting: next, `C[C@H](Oc1ccc(Cl)cn1)[C@H]1CN(C(=O)C2CCN(C(=O)C3CCC3)CC2)C[C@@H]1c1ccc(Cl)c(Cl)c1` (racemic) [Example 3, [(3RS,4SR)-3-[(SR)-1-(5-Chloro-pyridin-2-yloxy)-ethyl]-4-(3,4-dichloro-phenyl)-pyrrolidin-1-yl]-(1-cyclobutanecarbonyl-piperidin-4-yl)-methanone]: 0.0012 µM.
Still for that read-out and setting: next, `CC(=O)N1CCC(C(=O)N2C[C@H]([C@H](C)Oc3ccc(Cl)cn3)[C@@H](c3ccc(Cl)c(Cl)c3)C2)CC1` (racemic) [Example 1, 1-{4-[(3RS,4SR)-3-[(SR)-1-(5-Chloro-pyridin-2-yloxy)-ethyl]-4-(3,4-dichloro-phenyl)-pyrrolidine-1-carbonyl]-piperidin-1-yl}-ethanone]: 0.0047 µM; `C[C@H](Oc1ccc(C#N)cn1)[C@H]1CN(C(=O)C2CCN(C(=O)C3CCC3)CC2)C[C@@H]1c1ccc(Cl)c(Cl)c1` (racemic) [Example 20, 6-{(SR)-1-[(3RS,4SR)-1-(1-Cyclobutanecarbonyl-piperidine-4-carbonyl)-4-(3,4-dichloro-phenyl)-pyrrolidin-3-yl]-ethoxy}-nicotinonitrile]: 0.0026 µM.
As to `CC(=O)N(C)C1(c2ccccc2)CCN(CCC[C@]2(c3ccc(Cl)c(Cl)c3)CCCN(C(=O)c3ccccc3)C2)CC1` [SR 142,801, Osanetant], the “activity on positive symptoms of schizophrenia” value in assay [2] (altered behaviour, delusion, hallucinations, extreme emotions, excited motor activity, incoherent speech) is reported as “active”. In assay [2] (depression, anhedonia, social isolation or memory and attention deficits), the “activity in the treatment of negative symptoms” value was “inactive”.
Consider `C[C@H](Oc1ccc(C#N)cn1)[C@H]1CN(C(=O)C2CCN(C(=O)C3CC(=O)C3)CC2)C[C@@H]1c1ccc(Cl)c(Cl)c1` (racemic) [Example 21, 6-((SR)-1-{(3RS,4SR)-4-(3,4-Dichloro-phenyl)-1-[1-(3-oxo-cyclobutanecarbonyl)-piperidine-4-carbonyl]-pyrrolidin-3-yl}-ethoxy)-nicotinonitrile], for which the Ki in assay [1] was determined as 0.0021 µM.

The record behind these values is US8063075B2, “Pyrrolidine ether derivatives as NK3 receptor antagonists” (Hoffmann-La Roche Inc., priority 2008, dated 2011).
